In one series the target is PIM-2 kinase (Homo sapiens, UniProt Q9P1W9). Put plainly: PIM-2 kinase inhibitory activity (Promega kinase assay kit).
Series [1] concerns prostate cancer cell line (PC-3). The series is described as follows: MTT anticancer activity, PC-3. It counts as cell-based, human. The note with it: Homo sapiens, 72 h, PC-3, 72 h, mean ± SEM. On the procedure: (§1) Anticancer effect of the above-mentioned compounds was evaluated using four human cancer cell lines. Colon cancer cells (Caco-2), myeloid leukaemia cell line (NFS-60), liver cancer cell line (HepG-2) and prostate cancer cell line (PC-3) using MTT method was used for assaying cell viability[26] (Supplementary Page S55).
(§2) All final compounds were evaluated against four human cancer cell lines namely; liver cancer (HepG2) (ATCC® HB-8065™), colon cancer (Caco-2) (ATCC® HTB-37™), leukaemia cancer (NFS-60) (ATCC® CRL-1838™), and prostate cancer (PC-3) (ATCC® CRL-1435™) using doxorubicin (Dox) as the reference drug being widely used in tumour management utilising microculture MTT assay, declared by Mosmann[26] (Table 1 in Supplementary Material, Figures 5–8). […]
(§3) MTT method was used for assaying cell viability 25. Twenty microliters of 5 mg/ml MTT (Sigma, USA) was added to each well and the plate was incubated at 37 °C for 3 h. Then MTT solution was removed, 100 µl DMSO was used and the absorbance of each well was measured with a microplate reader ( BMG LabTech, Germany) at 570 nm. The effective concentration (IC 50) and safe dose (EC100) values of the tested compounds that cause 50% and 100% cell viability were estimated by the Graphpad Instat software.
(§4) Determination of the anticancer activity
(§5) Anticancer effect of the above-mentioned compounds was evaluated using four human cancer cell lines. Colon cancer cells (Caco-2) were maintained in DMEM (Lonza, USA) containing 10% FBS while myeloid leukemia cell line (NFS-60), liver cancer cell line (HepG-2) and prostate cancer cell line (PC-3) were cultured in RPMI-1640 (Lonza, USA) supplemented with 10% FBS. All cancer cells (5x10^3 cells/well) were seeded in sterile 96-well plates. After 24h, serial concentrations of the tested compounds and Dox were incubated with four cancer cell lines for 72 h at 37 °C in 5% CO2 incubator. MTT method was done as described above. The Graphpad Instat software was used for calculating the half maximal inhibitory concentration (IC50) values. Furthermore, phase contrast inverted microscope with a digital camera (Olympus, Japan) was used for investigating […]
(§6) safest anticancer compounds. […]

The test system of series [2] is Colon cancer cells (Caco-2). The series is described as follows: MTT anticancer activity, Caco-2. Conditions: for IC50: Homo sapiens, Caco-2, 72 h, MTT, mean ± SEM; for Caco-2 SI: selectivity index, Wi-38 versus Caco-2. Format: cell-based, human. The protocol:
as §1
All final compounds were evaluated against four human cancer cell lines namely; liver cancer (HepG2) (ATCC® HB-8065™), colon cancer (Caco-2) (ATCC® HTB-37™), leukaemia cancer (NFS-60) (ATCC® CRL-1838™), and prostate cancer (PC-3) (ATCC® CRL-1435™) using doxorubicin (Dox) as the reference drug being widely used in tumour management utilising microculture MTT assay, declared by Mosmann[26] (Table 1 in Supplementary Material, Figures 5–8).
(§7) Cytotoxicity of the tested compounds was evaluated using normal human lung fibroblast Wi-38 cell line compared to currently used anticancer drug (doxorubicin).
as §3, with “Firstly, Wi-38 cell line was subcultured in DMEM medium-contained 10% fetal bovine serum (FBS), then, seeded as 5x10^3 cells per well in 96-well cell culture plate and incubated at 37 °C in 5% CO 2 incubator. Serial concentrations of these compounds and doxorubicin (Dox) were incubat ed with Wi-38 cells for 72 h after 24 h for cell attachment. MTT method” for “MTT method”
as §4, §5, §6

The subject of series [3] is myeloid leukaemia cell line (NFS-60). The series is described as follows: MTT anticancer activity, NFS-60. Format: cell-based. The note with it: NFS-60, 72 h, MTT; mean ± SEM. The protocol:
as §1, §2, §3, §4, §5, §6

Series [4] relates to normal human lung fibroblast Wi-38 cell line. The series is described as follows: MTT cytotoxicity on normal cells. Format: cell-based. Conditions: Wi-38, 72 h, MTT, mean ± SEM; for EC50: Homo sapiens, 50% cell viability; for Wi-38 EC100: safe dose, 100% cell viability. On the procedure: Cytotoxicity of the tested compounds was evaluated using normal human lung fibroblast Wi-38 cell line compared to currently used anticancer drug (doxorubicin) using MTT method was used for assaying cell viability[26] (Supplementary Page S55).
Cytotoxicity test is one of the biological evaluations and screening tests that use human normal and cancer cells in-vitro to observe the effect of the studied compounds on their growth using MTT-based cytotoxicity. Microculture MTT method[26] was used to determine cytotoxic activity of the newly synthesised compounds against normal human lung fibroblast (Wi-38) using doxorubicin (Dox) as standard anticancer drug. The highest IC50 and EC100 values illustrate that the compounds were safe on the proliferation of normal human cells. […]. page 47:
as §7
as §3, with “Firstly, Wi-38 cell line was subcultured in DMEM medium-contained 10% fetal bovine serum (FBS), then, seeded as 5x10^3 cells per well in 96-well cell culture plate and incubated at 37 °C in 5% CO 2 incubator. Serial concentrations of these compounds and doxorubicin (Dox) were incubat ed with Wi-38 cells for 72 h after 24 h for cell attachment. MTT method” for “MTT method”, “Instat software. […]” for “Instat software.”

Series [5] deals with liver cancer cell line (HepG-2). Put plainly: MTT anticancer activity, HepG-2. It counts as cell-based, human. Conditions: Homo sapiens, HepG2; HepG-2, 72 h, MTT; mean ± SEM. The protocol: as §1, §2, §3, §4, §5, §6

This is an account of results in paper PMC9848351, “Discovery of new pyridine-quinoline hybrids as competitive and non-competitive PIM-1 kinase inhibitors with apoptosis induction and caspase 3/7 activation capabilities” (Journal of Enzyme Inhibition and Medicinal Chemistry, 2023).

As usually defined, the IC50 is the concentration that gives 50% inhibition. One may read the melting point as the temperature, or range, at which the solid turns liquid. A word on the EC50: it is the midpoint of the concentration-response curve. Low values mean greater potency, high ones weaker potency.

Chain of PIM-2 kinase (Q9P1W9 whole entry): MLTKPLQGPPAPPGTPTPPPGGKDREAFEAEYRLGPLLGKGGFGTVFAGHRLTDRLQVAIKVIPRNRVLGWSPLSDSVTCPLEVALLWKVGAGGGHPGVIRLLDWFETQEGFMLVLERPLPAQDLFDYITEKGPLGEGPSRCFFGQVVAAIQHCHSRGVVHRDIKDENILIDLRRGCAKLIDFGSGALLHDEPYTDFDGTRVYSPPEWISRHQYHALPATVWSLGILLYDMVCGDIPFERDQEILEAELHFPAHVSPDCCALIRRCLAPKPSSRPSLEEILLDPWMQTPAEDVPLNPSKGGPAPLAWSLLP
Text for PIM-2 kinase: PIM-1 and PIM-2 kinase inhibitory activity
PIM-1 and PIM-2 kinase utilizing PIM-1 and PIM-2 Kinase Assay Kit – Promega Corporation catalog #V4032, following the manufacturer’s instructions 26

On to `O=c1c(O)c(-c2ccc(O)c(O)c2)oc2cc(O)cc(O)c12` [Quercetin, reference compound], for which it took 0.61 µM to reach half-maximal inhibition at PIM-2 kinase (IC50).
As to `COc1ccc2[nH]c(=O)c(-c3cc(-c4cccc(O)c4)nc(S)c3C#N)cc2c1` [14c, 6-(3-Hydroxyphenyl)-2-mercapto-4-(6-methoxy-2-oxo-1,2-dihydroquinolin-3-yl)pyridine-3-carbonitrile], the melting point is 278 to 280 °C. Also, the IC50 in series [1] is 0.0626 ± 0.0001 µM. In series [2], the concentration for half-maximal inhibition (IC50) turned out to be 0.0842 ± 0.005 µM and the “Caco-2 SI” value is recorded as 1.971. Half-maximal inhibition in series [3] (IC50) required 0.0965 ± 0.004 µM. For the same compound, in series [4], the 50% effective concentration (EC50) is 0.166 ± 0.009 µM and the “Wi-38 EC100” value stood at 0.0972 ± 0.005 µM. Besides, in series [5], the midpoint of inhibition, the IC50, lay at 0.0557 µM.
In the case of `N#Cc1c(-c2cc3ccccc3nc2N2CCOCC2)cc(-c2cccc(O)c2)nc1OCC(=O)Nc1ccc(Cl)cc1` [11b, N-(4-Chlorophenyl)-2-((3-cyano-6-(3-hydroxyphenyl)-4-(2-morpholin-4-yl-quinolin-3-yl)pyridin-2-yl)oxy)acetamide], the melting point was in the range of 279 to 280 °C. In addition, the half-maximal inhibitory concentration (IC50) in series [1] was 0.13 ± 0.011 µM. Besides, in series [2], 0.063 ± 0.002 µM corresponded to half-maximal inhibition (IC50) and the “Caco-2 SI” value was determined as 5.349. It took 0.181 ± 0.007 µM to reach half-maximal inhibition in series [3] (IC50). Besides, in series [4], the 50% effective concentration (EC50) was determined as 0.337 ± 0.024 µM and the “Wi-38 EC100” value worked out at 0.00232 ± 0.001 µM. Further, it took 0.0715 ± 0.001 µM to reach half-maximal inhibition in series [5] (IC50).
On to `COc1ccc2[nH]c(=O)c(-c3cc(-c4cccc(O)c4)nc(N)c3C#N)cc2c1` [15c, 2-Amino-6-(3-hydroxyphenyl)-4-(6-methoxy-2-oxo-1,2-dihydroquinolin-3-yl)pyridine-3-carbonitrile], for which the melting point lay in the range of 259 to 260 °C. Moreover, the half-inhibitory concentration (IC50) in series [1] was 0.143 ± 0.013 µM. Also, in series [2], the IC50 was found to be 0.141 ± 0.021 µM and the “Caco-2 SI” value worked out at 0.858. Besides, in series [3], it took 0.122 ± 0.001 µM to reach half-maximal inhibition (IC50). For the same compound, in series [4], the EC50 came to 0.121 ± 0.002 µM and the “Wi-38 EC100” value was found to be 0.101 ± 0.005 µM. For the same compound, the IC50 in series [5] was found to be 0.107 ± 0.011 µM.
For `COc1ccc2nc(N3CCOCC3)c(-c3cc(-c4cccc(O)c4)nc(OCC(=O)Nc4ccc(Cl)cc4)c3C#N)cc2c1` [11h, N-(4-Chlorophenyl)-2-((3-cyano-6-(3-hydroxyphenyl)-4-(6-methoxy-2-morpholin-4-yl-quinolin-3-yl)pyridin-2-yl)oxy)acetamide], the melting point was 230 to 232 °C. For the same compound, the midpoint of inhibition in series [1], the IC50, lay at 0.0709 ± 0.0001 µM. Moreover, in series [2], the half-inhibitory concentration (IC50) was 0.0829 ± 0.003 µM and the “Caco-2 SI” value was found to be 2.002. The same compound had an IC50 in series [3] of 0.0781 ± 0.007 µM. For the same compound, in series [4], the EC50 was 0.166 ± 0.003 µM and the “Wi-38 EC100” value was 0.0182 ± 0.001 µM. The 50% inhibitory concentration (IC50) in series [5] came to 0.074 ± 0.002 µM.
`N#Cc1c(-c2cc3cc(Cl)ccc3[nH]c2=O)cc(-c2cccc(O)c2)[nH]c1=O` [13b, 4-(6-Chloro-2-oxo-1,2-dihydroquinolin-3-yl)-6-(3-hydroxyphenyl)-2-oxo-1,2-dihydropyridine-3-carbonitrile]: the melting point was over 300 °C. In addition, the midpoint of inhibition in series [1], the IC50, lay at 0.0388 ± 0.003 µM. Moreover, in series [2], the IC50 turned out to be 0.0484 ± 0.005 µM and the “Caco-2 SI” value worked out at 1.005. Moreover, the IC50 in series [3] was 0.0337 µM. For the same compound, in series [4], the midpoint of the response, the EC50, lay at 0.0486 ± 0.016 µM and the “Wi-38 EC100” value worked out at 0.017 ± 0.002 µM. Moreover, in series [5], the IC50 was 0.0309 µM.
As to `COc1ccc2nc(N3CCCCC3)c(-c3cc(-c4cccc(O)c4)[nH]c(=O)c3C#N)cc2c1` [5f, 6-(3-Hydroxyphenyl)-4-(6-methoxy-2-(piperidin-1-yl)quinolin-3-yl)-2-oxo-1,2-dihydropyridine-3-carbonitrile], the melting point was 265 to 267 °C. The same compound displayed a concentration for half-maximal inhibition (IC50) in series [1] of 0.0451 ± 0.0001 µM. Moreover, in series [2], the IC50 amounted to 0.0508 ± 0.004 µM and the “Caco-2 SI” value came out at 0.587. For the same compound, the IC50 in series [3] was found to be 0.04283 ± 0.0003 µM. For the same compound, in series [4], a half-maximal response (EC50) required 0.0298 ± 0.002 µM and the “Wi-38 EC100” value amounted to 0.0258 ± 0.008 µM. In addition, half-maximal inhibition in series [5] (IC50) required 0.0378 ± 0.01 µM.
Consider `N#Cc1c(-c2cc3cc(Cl)ccc3nc2N2CCCCC2)cc(-c2cccc(O)c2)[nH]c1=O` [5e, 4-(6-Chloro-2-(piperidin-1-yl)quinoline-3-yl)-6-(3-hydroxyphenyl)-2-oxo-1,2-dihydropyridine-3-carbonitrile], for which the melting point was over 300 °C. Further, the IC50 in series [1] is 0.0409 ± 0.001 µM. Moreover, in series [2], it took 0.0517 ± 0.005 µM to reach half-maximal inhibition (IC50) and the “Caco-2 SI” value is 0.534. In series [3], this compound registered an IC50 of 0.0627 ± 0.027 µM. Also, in series [4], the EC50 was 0.0276 ± 0.001 µM and the “Wi-38 EC100” value came out at 0.0234 ± 0.001 µM. In series [5], this compound showed a half-inhibitory concentration (IC50) of 0.0361 ± 0.001 µM.
Consider `N#Cc1c(-c2cc3ccccc3[nH]c2=O)cc(-c2cccc(O)c2)nc1N` [15a, 2-Amino-6-(3-hydroxyphenyl)-4-(2-oxo-1,2-dihydroquinolin-3-yl)pyridine-3-carbonitrile], for which the melting point is over 300 °C. In series [1], this compound yielded an IC50 of 0.242 ± 0.037 µM. Also, in series [2], the concentration for half-maximal inhibition (IC50) was 0.191 ± 0.019 µM and the “Caco-2 SI” value worked out at 1.058. In addition, the IC50 in series [3] amounted to 0.247 ± 0.016 µM. Also, in series [4], the EC50 was found to be 0.202 ± 0.003 µM and the “Wi-38 EC100” value came to 0.0663 ± 0.003 µM. In series [5], half-maximal inhibition (IC50) was put at 0.108 ± 0.007 µM.
The compound `N#Cc1c(-c2cc3cc(Cl)ccc3[nH]c2=O)cc(-c2cccc(O)c2)nc1N` [15b, 2-Amino-4-(6-chloro-2-oxo-1,2-dihydroquinolin-3-yl)-6-(3-hydroxyphenyl)pyridine-3-carbonitrile] returned a melting point of over 300 °C. In series [1], this compound came in with a concentration for half-maximal inhibition (IC50) of 0.196 ± 0.061 µM. In series [2], the half-inhibitory concentration (IC50) was determined as 0.194 ± 0.002 µM and the “Caco-2 SI” value is 1.361. In addition, in series [3], it took 0.323 ± 0.007 µM to reach half-maximal inhibition (IC50). Further, in series [4], the response was half-maximal at 0.264 ± 0.006 µM (EC50) and the “Wi-38 EC100” value is 0.169 ± 0.009 µM. Moreover, in series [5], half-maximal inhibition (IC50) was put at 0.299 ± 0.008 µM.
